Measured values published in patent publication US8822413B2, “Bifunctional hormone having alpha-MSH activity and natriuretic peptide activity and uses thereof” (Theratechnologies Inc., priority 2007, dated 2014).
Bridge positions count the residues as written; N and C are the ends. Square brackets hold non-standard residues; d marks the D form. Peptide text beside a SMILES is read from it.

Assays:
Sprague-Dawley (SD) rats [1] = assay: Effect on mean arterial pressure (MAP) of anesthetized rat, iv bolus and iv infusion; assay type: in vivo
Sprague-Dawley (SD) rats [2] = assay: Effect on angiotensin II-induced hypertension in SD rat; assay type: in vivo; conditions: Ang II infusion, FIG. 2
Text: BNP (Natrecor®) was approved by the FDA for lowering blood pressure in hypertensive crisis. Its natural homolog, ANP, was also shown to rapidly reduce blood pressure and is useful as a therapeutic in hypertensive crisis. Activation of renin-angiotensin system is implicated in several medical indications involving hypertension. Therefore, a rat model in which blood pressure was raised with the continuous infusion of angiotensin II was used, and the potency/efficacy of native ANP (peptide #2 in the figures) and the bifunctional hormone of SEQ ID NO: 33 (peptide #33 in the figures) to reduce blood pressure was tested following intravenous bolus injections of the peptides in SD rats.
(§1) Animals. Sprague-Dawley (SD) rats (male, weighing from 300 to 330 g) were obtained from Charles River Inc. Animals were maintained on standard laboratory chow under a 12:12 light:dark cycle.
Surgical preparation. The rats were anesthetized with isoflurane 2.5% for the duration of the experiment. Animals were placed under radiant warmer to keep the temperature at 37.5° C. The carotid artery was catheterized (Polyethylene™ Tubing PE90) for continuous arterial blood pressure recording with a pressure transducer (Statham) connected to a multichannel recorder (TA240 Gould). […] During this period, the stability of blood pressure was assessed. […]

Sprague-Dawley (SD) rats [3] = assay: Prophylactic treatment, acute kidney dysfunction following renal ischemia (renal artery clamping); assay type: in vivo, rat
Procedure: Plasma creatinine and urea were determined at different times. Data were analyzed by two way ANOVA using Bonferroni test for significance against the saline-treated group (n=3 per group; sal n=6).
as §1
Surgical preparation. The rats were anesthetized with Isoflurane 2.5% for the duration of the experiment. Animals were placed under radiant warmer to keep the temperature at 37.5° C. A blood sample (0.5 ml) was collected via tail vein artery before the renal artery clamping. Once the animal was anesthetized, placed in a supine position, a 1.5 cm flank incision was made on the right side of the abdominal wall. The right kidney was then exposed and the ureter, renal artery and renal vein were carefully dissected and ligated. The kidney was removed after cutting renal pedicle. A same incision was made on the left side of the abdominal wall. The left kidney is exposed and the renal vascular pedicle is carefully dissected. The renal vascular pedicle was then occluded by placing a vascular clip (Micro Serrefine™, Fine Science Tools) for a period of 30 or 45 minutes. This renal vascular pedicle clamping produced an acute renal artery occlusion (RAO). The kidney was inspected for ischemia as well as for good reperfusion after removing vascular clip for 2 minutes. The wound of abdominal wall was closed in two layers. The muscular layer was closed with a running 3-0 silk suture and the skin was closed with suture clips (Fine Science Tools). 21 hours after right nephrectomy and left renal artery clipping procedure, the rats were put in the metabolic cages for urine collection (in pre-weighed Tube 50 ml) for 3 hours. Urine volume was measured by weighing the tube containing urine. Then, the animals were anesthetized with Isoflurane 2.5%. Left kidney was removed and kept in formalin for future histology. […]

Sprague-Dawley (SD) rats [4] = assay: Post-injury (therapeutic) treatment, acute kidney dysfunction following renal ischemia; assay type: in vivo, rat; conditions: 15 μg/kg/h for 2 h after clamp removal, FIG. 4
Procedure: Peptides #2 and #33 were infused for 2 h after the removal of the renal clamps in the rat model of renal ischemia. Blood samples were collected at the indicated times and plasma creatinine and urea were determined. Data were analyzed by two way ANOVA using Bonferroni test for significance against the saline-treated group (n=3 per group; sal n=6);
(§2) Surgical preparation. The rats were anesthetized with Isoflurane 2.5% for the duration of the experiment. Animals were placed under radiant warmer to keep the temperature at 37.5° C. A blood sample (0.5 ml) was collected via tail vein artery before the renal artery clamping. Once the animal was anesthetized, placed in a supine position, a 1.5 cm flank incision was made on the right side of the abdominal wall. The right kidney was then exposed and the ureter, renal artery and renal vein were carefully dissected and ligated. The kidney was removed after cutting renal pedicle. A same incision was made on the left side of the abdominal wall. The left kidney is exposed and the renal vascular pedicle is carefully dissected. The renal vascular pedicle was then occluded by placing a vascular clip (Micro Serrefine™, Fine Science Tools) for a period of 30 or 45 minutes. This renal vascular pedicle clamping produced an acute renal artery occlusion (RAO). The kidney was inspected for ischemia as well as for good reperfusion after removing vascular clip for 2 minutes. The wound of abdominal wall was closed in two layers. The muscular layer was closed with a running 3-0 silk suture and the skin was closed with suture clips (Fine Science Tools). 21 hours after right nephrectomy and left renal artery clipping procedure, the rats were put in the metabolic cages for urine collection (in pre-weighed Tube 50 ml) for 3 hours. Urine volume was measured by weighing the tube containing urine. Then, the animals were anesthetized with Isoflurane 2.5%. Left kidney was removed and kept in formalin for future histology. Blood was collected by cardiac puncture into a heparinized syringe (3 ml) and immediately transferred into appropriately labeled tubes that contain heparin as the anticoagulant. Following collection, all blood samples were kept on ice and centrifuged for 2 min at 13000 rpm. Plasma and urine aliquots (400 μl) were removed and stored at −80° C.
Preparation of dosing solutions. Peptides (#2 and #33) were also made up fresh daily in a 0.1% HSA saline solution (33 μl of 30% HSA in […] saline) at concentration of 100 μg/100 μl. […]
In order to verify if short infusions of the peptides post-injury (therapeutic treatment) would be beneficial to reduce kidney injury, peptides #2 or #33 were infused at 15 μg/kg/h for 2 h after renal artery clamp removal. Plasma creatinine and urea were determined at different times. […]

Sprague-Dawley (SD) rats [5] = assay: Chronic infusion, acute kidney dysfunction following renal ischemia; assay type: in vivo, rat; conditions: FIG. 5
Procedure: After removing the renal artery clamps, peptide #2 or #33 was infused at two doses using intraperitoneally implanted Alzet™ minipumps (2ML1; delivery rate 10 μl/h). Plasma creatinine and BUN were determined at the indicated times. Data were analyzed by two way ANOVA using Bonferroni test for significance against the saline-treated group (n=3 per group; sal n=6); and
as §2
In order to test the effect of chronic infusion of the bifunctional hormone on kidney function on kidney injury, peptides #2 or #33 were infused at 1.5 or 15 μg/kg/h for 24 h after renal artery clamp removal. Plasma creatinine and urea nitrogen were determined at 24 h after the injury. The experimental procedures (animal model, dosing solutions) were the same as those described in Example 5 above.

[6] = 15 μg/kg/h infused 1 h before and 1 h after renal artery clamping, vs saline group, each time point, FIG. 3
[7] = later time points 21 h and 27 h
[8] = 1.5 or 15 μg/kg/h for 24 h after clamp removal (Alzet minipumps), vs saline-treated animals at 24 h

Question: Which “effect on MAP of continuous intravenous infusion” value (Sprague-Dawley (SD) rats [1]; 30 μg/kg/h iv infusion, MAP recorded over an hour, FIG. 1B) does the source give for CC[C@H](C)[C@@H]1NC(=O)[C@H](CCCNC(=N)N)NC(=O)[C@H](CC(=O)O)NC(=O)[C@H](CCSC)NC(=O)[C@H](CCCNC(=N)N)NC(=O)CNC(=O)CNC(=O)[C@H](Cc2ccccc2)NC(=O)[C@@H](NC(=O)[C@H](CCSC)NC(=O)[C@@H]2CCCN2C(=O)[C@H](CCCCN)NC(=O)CNC(=O)[C@H](Cc2c[nH]c3ccccc23)NC(=O)[C@H](CCCNC(=N)N)NC(=O)[C@@H](Cc2ccccc2)NC(=O)[C@H](Cc2c[nH]cn2)NC(C)=O)CSSC[C@@H](C(=O)N[C@@H](CC(N)=O)C(=O)N[C@@H](CO)C(=O)N[C@@H](Cc2ccccc2)C(=O)N[C@@H](CCCNC(=N)N)C(=O)N[C@@H](Cc2ccc(O)cc2)C(N)=O)NC(=O)CNC(=O)[C@H](CC(C)C)NC(=O)CNC(=O)[C@H](CO)NC(=O)[C@H](CCC(N)=O)NC(=O)[C@H](C)NC(=O)CNC1=O [SEQ ID NO: 33, Ac-H-f-R-W-G-K-P-M-[C-F-G-G-R-M-D-R-I-G-A-Q-S-G-L-G-C]-N-S-F-R-Y-NH2] (Ac-H[dF]RWGKPMCFGGRMDRIGAQSGLGCNSFRY-NH2; disulfide 9-25) here?
Answer: well tolerated

Question: What about the “bolus iv dose tolerated (MAP)” value (Sprague-Dawley (SD) rats [1]; anesthetized SD rat, incremental iv bolus doses, FIG. 1A) of the same compound?
Answer: up to 20 μg/kg

Question: And the “effect on blood pressure raised by angiotensin II” value (Sprague-Dawley (SD) rats [2]; iv bolus doses of 400 μg/kg and above)?
Answer: effect similar to that of ANP

Question: And the “effect on blood pressure raised by angiotensin II” value (Sprague-Dawley (SD) rats [2]; iv bolus doses of up to 300 μg/kg)?
Answer: did not induced hypotension

Question: What about the “blood urea nitrogen (BUN)” value (Sprague-Dawley (SD) rats [3]; [6]) of the same compound?
Answer: significantly reduced the elevation

Question: What about the plasma creatinine (Sprague-Dawley (SD) rats [3]; [6]) of the same compound?
Answer: significantly reduced the elevation

Question: And the “diminishing kidney injury, compared with native ANP” value (Sprague-Dawley (SD) rats [3]; prophylactic use, 15 μg/kg/h)?
Answer: as effective as native ANP

Question: And the BUN (Sprague-Dawley (SD) rats [4]; at 4 h)?
Answer: prevented the rise

Question: What about the plasma creatinine (Sprague-Dawley (SD) rats [4]; at 4 h) of the same compound?
Answer: prevented the rise

Question: And the “reducing BUN levels, compared with native ANP” value (Sprague-Dawley (SD) rats [4]; [7])?
Answer: more effective than native ANP

Question: What about the “reducing creatinine levels, compared with native ANP” value (Sprague-Dawley (SD) rats [4]; [7]) of the same compound?
Answer: more effective than native ANP

Question: What about the “dose dependence of reduction in the blood markers of renal ischemia” value (Sprague-Dawley (SD) rats [5]; 1.5 and 15 μg/kg/h for 24 h) of the same compound?
Answer: dose-dependent reduction

Question: And the BUN (Sprague-Dawley (SD) rats [5]; [8])?
Answer: reduced plasma creatinine and BUN significantly

Question: And the plasma creatinine (Sprague-Dawley (SD) rats [5]; [8])?
Answer: reduced plasma creatinine and BUN significantly

Question: What about the “reduction in BUN levels, compared with native ANP” value (Sprague-Dawley (SD) rats [5]; 24-hour infusion) of the same compound?
Answer: more pronounced reduction

Question: And the “reduction in creatinine levels, compared with native ANP” value (Sprague-Dawley (SD) rats [5]; 24-hour infusion)?
Answer: more pronounced reduction
